This is an account of results in patent publication US7183260B2, “C-terminal modified oxamyl dipeptides as inhibitors of the ICE/ced-3 family of cysteine proteases” (Idun Pharmaceuticals, Inc., priority 1998, dated 2007).

What all share (type): biochemical
Holding throughout (details): continuous assay 60 min, reaction initiated by adding enzyme to substrate-inhibitor mixture

One test concerns the target T1, MCH-2 (Homo sapiens, UniProt P55212).
T1 sequence (P55212 24-179 limits assumed): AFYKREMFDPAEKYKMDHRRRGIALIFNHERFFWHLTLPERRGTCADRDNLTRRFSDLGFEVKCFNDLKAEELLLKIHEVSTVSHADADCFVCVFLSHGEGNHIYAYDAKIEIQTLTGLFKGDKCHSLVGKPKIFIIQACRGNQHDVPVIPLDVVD
T1 sequence (P55212 194-293 limits assumed): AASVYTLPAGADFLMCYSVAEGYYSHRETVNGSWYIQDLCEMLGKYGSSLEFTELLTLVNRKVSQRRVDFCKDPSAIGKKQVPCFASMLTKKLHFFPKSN
In words: Dissociation constant Ki and irreversible rate constant k3 for irreversible inhibitors (Mch2).

The next test has as its target T2, CPP32 (Homo sapiens, UniProt P42574).
T2 sequence (P42574 29-175 limits assumed): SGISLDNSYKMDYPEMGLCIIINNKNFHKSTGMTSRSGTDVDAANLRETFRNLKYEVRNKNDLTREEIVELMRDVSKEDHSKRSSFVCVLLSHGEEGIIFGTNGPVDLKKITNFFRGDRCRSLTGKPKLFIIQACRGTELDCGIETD
T2 sequence (P42574 176-277 limits assumed): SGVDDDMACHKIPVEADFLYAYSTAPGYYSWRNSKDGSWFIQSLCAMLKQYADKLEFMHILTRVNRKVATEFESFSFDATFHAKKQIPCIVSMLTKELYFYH
In words: Dissociation constant Ki and irreversible rate constant k3 for irreversible inhibitors (CPP32).

The next test deals with T3, mICE (Mus musculus, UniProt P29452).
T3 sequence (P29452 123-296 limits assumed): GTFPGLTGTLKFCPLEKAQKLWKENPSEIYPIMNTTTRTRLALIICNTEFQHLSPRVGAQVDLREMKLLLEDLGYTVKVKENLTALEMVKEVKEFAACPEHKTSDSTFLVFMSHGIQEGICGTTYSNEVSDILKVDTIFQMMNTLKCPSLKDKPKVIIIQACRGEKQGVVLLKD
T3 sequence (P29452 315-402 limits assumed): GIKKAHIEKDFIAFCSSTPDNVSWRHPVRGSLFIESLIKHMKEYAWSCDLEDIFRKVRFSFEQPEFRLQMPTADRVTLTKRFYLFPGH
In words: Dissociation constant Ki and irreversible rate constant k3 for irreversible inhibitors (ICE).

The next test concerns the target MCH-5 (Homo sapiens, UniProt Q14790). Briefly: Dissociation constant Ki and irreversible rate constant k3 for irreversible inhibitors (Mch5).

SMILES strings stand for the structures.

Sequence of MCH-5 (Q14790 217-374 limits assumed, species assumed): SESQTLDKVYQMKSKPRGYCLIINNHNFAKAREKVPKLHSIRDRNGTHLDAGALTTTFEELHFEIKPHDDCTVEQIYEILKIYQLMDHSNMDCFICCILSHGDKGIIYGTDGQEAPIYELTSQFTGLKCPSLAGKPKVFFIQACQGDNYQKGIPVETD
Sequence of MCH-5 (Q14790 385-479 limits assumed, species assumed): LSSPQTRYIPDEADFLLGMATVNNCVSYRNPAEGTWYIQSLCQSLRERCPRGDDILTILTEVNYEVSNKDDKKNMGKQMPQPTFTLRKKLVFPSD

In the case of `C[C@H](NC(=O)C(=O)NCc1cccc2ccccc12)C(=O)N[C@@H](CC(=O)O)C(=O)COP(=O)(c1ccccc1)c1ccccc1` [Example 35], on MCH-2, the Ki was determined as 11 nM and the “MCH-2 k3/Ki” value is recorded as 186,000 moles^−1 seconds^−1. For the same molecule, on CPP32, the “CPP32 k3/Ki” value was 245,000 moles^−1 seconds^−1 and the Ki came out at 22 nM. For the same molecule, at mICE, the Ki came to 35 nM and the “mICE k3/Ki” value is on record as 191,000 moles^−1 seconds^−1. At MCH-5, the Ki is 23 nM and the “MCH-5 k3/Ki” value is given as 82,700 moles^−1 seconds^−1.
Turning to `C[C@H](NC(=O)C(=O)Nc1ccccc1C(C)(C)C)C(=O)N[C@@H](CC(=O)O)C(=O)COC(=O)c1c(Cl)cccc1Cl` [Example 37], at MCH-2, the Ki came to 13 nM and the “MCH-2 k3/Ki” value is recorded as 191,000 moles^−1 seconds^−1. For the same molecule, on CPP32, the “CPP32 k3/Ki” value is 142,000 moles^−1 seconds^−1 and the Ki was determined as 78 nM. Besides, at mICE, the Ki came to 465 nM and the “mICE k3/Ki” value is 43,300 moles^−1 seconds^−1. For the same molecule, on MCH-5, the Ki was found to be 83 nM and the “MCH-5 k3/Ki” value is 39,100 moles^−1 seconds^−1.
Take `C[C@H](NC(=O)C(=O)Nc1ccccc1I)C(=O)N[C@@H](CC(=O)O)C(=O)COC(=O)c1c(Cl)cccc1Cl` [Example 38]: on MCH-2, the Ki worked out at 6 nM and the “MCH-2 k3/Ki” value was 360,000 moles^−1 seconds^−1. Further, on CPP32, the “CPP32 k3/Ki” value was 942,000 moles^−1 seconds^−1 and the Ki came out at 13 nM. Moreover, on mICE, the Ki is 152 nM and the “mICE k3/Ki” value is on record as 90,100 moles^−1 seconds^−1. On MCH-5, the Ki was found to be 6 nM and the “MCH-5 k3/Ki” value was 337,000 moles^−1 seconds^−1.
Consider `C[C@H](NC(=O)C(=O)Nc1ccccc1F)C(=O)N[C@@H](CC(=O)O)C(=O)COC(=O)c1c(Cl)cccc1Cl` [Example 39], for which, at MCH-2, the Ki stood at 23 nM and the “MCH-2 k3/Ki” value is on record as 129,000 moles^−1 seconds^−1. Also, at CPP32, the “CPP32 k3/Ki” value is 68,900 moles^−1 seconds^−1 and the Ki is 202 nM. Also, at mICE, the Ki worked out at 116 nM and the “mICE k3/Ki” value is 172,000 moles^−1 seconds^−1. Further, on MCH-5, the Ki came to 40 nM and the “MCH-5 k3/Ki” value was 155,000 moles^−1 seconds^−1.
With `C[C@H](NC(=O)C(=O)Nc1cc(C(C)(C)C)ccc1C(C)(C)C)C(=O)N[C@@H](CC(=O)O)C(=O)COc1c(F)c(F)cc(F)c1F` [Example 40], at MCH-2, the Ki is 15 nM and the “MCH-2 k3/Ki” value was 192,000 moles^−1 seconds^−1. Besides, on CPP32, the “CPP32 k3/Ki” value was 221,000 moles^−1 seconds^−1 and the Ki stood at 63 nM. Moreover, at mICE, the Ki is 45 nM and the “mICE k3/Ki” value is recorded as 195,000 moles^−1 seconds^−1. Also, at MCH-5, the Ki stood at 10 nM and the “MCH-5 k3/Ki” value is on record as 248,000 moles^−1 seconds^−1.
Take `C[C@H](NC(=O)C(=O)Nc1ccccc1Cl)C(=O)N[C@@H](CC(=O)O)C(=O)COP(=O)(c1ccccc1)c1ccccc1` [Example 41]: at MCH-2, the Ki was 11 nM and the “MCH-2 k3/Ki” value is on record as 247,000 moles^−1 seconds^−1. For the same molecule, on CPP32, the “CPP32 k3/Ki” value is listed as 162,000 moles^−1 seconds^−1 and the Ki came to 35 nM. Moreover, on mICE, the Ki is 140 nM and the “mICE k3/Ki” value is 103,000 moles^−1 seconds^−1. Moreover, at MCH-5, the Ki came out at 27 nM and the “MCH-5 k3/Ki” value is 179,000 moles^−1 seconds^−1.
Turning to `C[C@H](NC(=O)C(=O)Nc1ccccc1Cl)C(=O)N[C@@H](CC(=O)O)C(=O)COC(=O)c1c(Cl)cccc1Cl` [Example 42], on MCH-2, the Ki worked out at 7 nM and the “MCH-2 k3/Ki” value is reported as 745,000 moles^−1 seconds^−1. Also, on CPP32, the “CPP32 k3/Ki” value is 842,000 moles^−1 seconds^−1 and the Ki was 21 nM. Besides, on mICE, the Ki stood at 7 nM and the “mICE k3/Ki” value is 1,940,000 moles^−1 seconds^−1. For the same molecule, on MCH-5, the Ki is 4.6 nM and the “MCH-5 k3/Ki” value is reported as 1,630,000 moles^−1 seconds^−1.
As for `C[C@H](NC(=O)C(=O)Nc1ccc(F)cc1)C(=O)N[C@@H](CC(=O)O)C(=O)COP(=O)(c1ccccc1)c1ccccc1` [Example 43], at MCH-2, the Ki was found to be 9 nM and the “MCH-2 k3/Ki” value was 424,000 moles^−1 seconds^−1. On CPP32, the “CPP32 k3/Ki” value is 268,000 moles^−1 seconds^−1 and the Ki was 52 nM. For the same molecule, at mICE, the Ki amounted to 13 nM and the “mICE k3/Ki” value is 956,000 moles^−1 seconds^−1. At MCH-5, the Ki came out at 3.6 nM and the “MCH-5 k3/Ki” value is listed as 2,300,000 moles^−1 seconds^−1.
On to `C[C@H](NC(=O)C(=O)Nc1ccc(F)cc1)C(=O)N[C@@H](CC(=O)O)C(=O)COC(=O)c1c(Cl)cccc1Cl` [Example 44], for which, on MCH-2, the Ki worked out at 142 nM and the “MCH-2 k3/Ki” value was 18,600 moles^−1 seconds^−1. At CPP32, the “CPP32 k3/Ki” value was 22,700 moles^−1 seconds^−1 and the Ki was found to be 1280 nM. At mICE, the Ki is 1450 nM and the “mICE k3/Ki” value is 11,700 moles^−1 seconds^−1. For the same molecule, at MCH-5, the Ki was 462 nM and the “MCH-5 k3/Ki” value is listed as 18,700 moles^−1 seconds^−1.
With `C[C@H](NC(=O)C(=O)Nc1cc(C(F)(F)F)ccc1N1CCOCC1)C(=O)N[C@@H](CC(=O)O)C(=O)COP(=O)(c1ccccc1)c1ccccc1` [Example 45], at MCH-2, the Ki worked out at 19 nM and the “MCH-2 k3/Ki” value is on record as 98,500 moles^−1 seconds^−1. Also, on CPP32, the “CPP32 k3/Ki” value is reported as 100,000 moles^−1 seconds^−1 and the Ki was 112 nM. In addition, on mICE, the Ki came out at 19 nM and the “mICE k3/Ki” value is recorded as 369,000 moles^−1 seconds^−1. Moreover, at MCH-5, the Ki came out at 8 nM and the “MCH-5 k3/Ki” value is on record as 441,000 moles^−1 seconds^−1.
For `C[C@H](NC(=O)C(=O)Nc1cc(C(F)(F)F)ccc1N1CCCC1)C(=O)N[C@@H](CC(=O)O)C(=O)COP(=O)(c1ccccc1)c1ccccc1` [Example 46], on MCH-2, the Ki stood at 7.3 nM and the “MCH-2 k3/Ki” value is listed as 202,000 moles^−1 seconds^−1. Moreover, on CPP32, the “CPP32 k3/Ki” value is recorded as 78,600 moles^−1 seconds^−1 and the Ki turned out to be 52 nM. In addition, at mICE, the Ki was determined as 5.3 nM and the “mICE k3/Ki” value was 1,503,000 moles^−1 seconds^−1. Besides, on MCH-5, the Ki stood at 4.4 nM and the “MCH-5 k3/Ki” value is given as 933,000 moles^−1 seconds^−1.
`C[C@H](NC(=O)C(=O)Nc1ccccc1C(C)(C)C)C(=O)N[C@@H](CC(=O)O)C(=O)COP(=O)(c1ccccc1)c1ccccc1` [Example 47]: on MCH-2, the Ki is 11 nM and the “MCH-2 k3/Ki” value is given as 484,000 moles^−1 seconds^−1. Further, at CPP32, the “CPP32 k3/Ki” value is recorded as 395,000 moles^−1 seconds^−1 and the Ki was 24 nM. In addition, on mICE, the Ki came out at 14 nM and the “mICE k3/Ki” value is given as 625,000 moles^−1 seconds^−1. Further, at MCH-5, the Ki was found to be 8.7 nM and the “MCH-5 k3/Ki” value was 589,000 moles^−1 seconds^−1.
With `C[C@H](NC(=O)C(=O)Nc1cccc2c1CCCC2)C(=O)N[C@@H](CC(=O)O)C(=O)COP(=O)(c1ccccc1)c1ccccc1` [Example 48], at MCH-2, the Ki amounted to 22 nM and the “MCH-2 k3/Ki” value was 132,000 moles^−1 seconds^−1. At CPP32, the “CPP32 k3/Ki” value is 139,000 moles^−1 seconds^−1 and the Ki was 69 nM. Also, on mICE, the Ki turned out to be 11 nM and the “mICE k3/Ki” value was 905,000 moles^−1 seconds^−1. In addition, on MCH-5, the Ki turned out to be 4.1 nM and the “MCH-5 k3/Ki” value is listed as 1,150,000 moles^−1 seconds^−1.
For `C[C@H](NC(=O)C(=O)Nc1cccc2c1CCCC2)C(=O)N[C@@H](CC(=O)O)C(=O)COC(=O)c1c(Cl)cccc1Cl` [Example 49], on MCH-2, the Ki came to 10 nM and the “MCH-2 k3/Ki” value was 264,000 moles^−1 seconds^−1. For the same molecule, at CPP32, the “CPP32 k3/Ki” value is 260,000 moles^−1 seconds^−1 and the Ki was 43 nM. On mICE, the Ki is 1.4 nM and the “mICE k3/Ki” value is 17,600,000 moles^−1 seconds^−1. For the same molecule, at MCH-5, the Ki was found to be 4 nM and the “MCH-5 k3/Ki” value is given as 1,920,000 moles^−1 seconds^−1.
For `C[C@H](NC(=O)C(=O)Nc1cccc2c1CCCC2)C(=O)N[C@@H](CC(=O)O)C(=O)COc1c(F)c(F)cc(F)c1F` [Example 50], at MCH-2, the Ki came out at 72 nM and the “MCH-2 k3/Ki” value was 64,100 moles^−1 seconds^−1. Besides, on CPP32, the “CPP32 k3/Ki” value is given as 118,000 moles^−1 seconds^−1 and the Ki was found to be 129 nM. For the same molecule, at mICE, the Ki turned out to be 640 nM and the “mICE k3/Ki” value is reported as 22,000 moles^−1 seconds^−1. Also, at MCH-5, the Ki stood at 74 nM and the “MCH-5 k3/Ki” value was 46,200 moles^−1 seconds^−1.
For the molecule `C[C@H](NC(=O)C(=O)NCc1ccccc1)C(=O)N[C@@H](CC(=O)O)C(=O)COc1c(F)c(F)cc(F)c1F` [Example 51], at MCH-2, the Ki worked out at 70 nM and the “MCH-2 k3/Ki” value is on record as 42,800 moles^−1 seconds^−1. For the same molecule, at CPP32, the “CPP32 k3/Ki” value was 54,300 moles^−1 seconds^−1 and the Ki worked out at 370 nM. Also, on mICE, the Ki was 1010 nM and the “mICE k3/Ki” value was 13,900 moles^−1 seconds^−1. At MCH-5, the Ki amounted to 83 nM and the “MCH-5 k3/Ki” value is given as 23,100 moles^−1 seconds^−1.
